Laboratory results: patent US6294568A, “5-arylpyrrole derivatives” (priority 1997, dated 2001)

Tests used:
Human COX-1 = molecular target: T1, Human COX-1 (Homo sapiens, UniProt P23219); test: Human COX-1 Inhibitory Activity Test (TXB2 in blood); assay type: cell-based; details: IC50 from Hill Plot
T1 construct: endogenous in cells; host or cells: whole blood of a healthy human donor (own knowledge: TXB2 of clotting blood comes from platelet COX-1)
Procedure: COX-1 and COX-2 activities were measured according to the method of Patrignani et al. (J. Pharm. Exp. Ther. Vol. 271, 1705 (1994)).
(1) COX-1 activity was measured in the following procedure. […] The serum obtained by 10 minutes of centrifugation at 2000 rpm at 4° C. was stored at -40° C. until the measurement of the amount of thromboxane B2 (TXB2). The test samples, which had been dissolved in ethanol and diluted to the specified concentrations, were previously dispensed into the glass test tubes, and the solvent was evaporated to dryness by Centrifugal Vaporizer (CVE-200D, manufactured by Tokyo Rika Mfg. Co., Ltd.) so that the test samples were added to the plasma.
(3) The measurement for the TXB2 content was conducted in the following procedure. In a part of a 96 well plate coated with anti-rabbit IgG antibody, 2 wells were allotted respectively to blank well, Non-specific Binding (NSB) well, Maximum Binding (B0) well, standard wells at 7 concentrations of TXB2 (1000 pg/ml) in doubling dilution ranging from 1000-15.6 pg/ml. The rest of the wells were used for the measurement of the samples. EIA buffer was added to the NSB wells (100 μl ) and B0 wells (50 μl), respectively. 50 μl of each of the standard dilution was added in an order from thinner to thicker concentrations. Each of the samples was added to the rest of the wells in an amount of 50 μl. Then, 50 μl of TXB2 tracer was added to each of the wells except for the blank wells. Further, 50 μl of TXB2 antibody was added to each of the wells except for the NSB wells and blank wells, then the well plate was covered with a plastic film and the reaction continued for 18 hours at room temperature. When the reaction was terminated, the wells were washed 5 times with a wash buffer. 200 μl of Elman's reagent was added to each of the wells and then the well plate was covered with a plastic film and developed for 60 minutes in a dark place. The absorbance at 405 nm was measured by an Immuno Reader (NJ-2000, manufactured by Nippon Intermed Co., Ltd.). From the measurement result, %B/B0 was calculated and, applying it to the approximation formula of Hill Plot, the concentration of the samples was determined to be 2,000 times concentration. […]

Human COX-2 = molecular target: T2, Human COX-2 (Homo sapiens, UniProt P35354); details: ratio of IC50 COX-1 to COX-2; cited from earlier work
T2 construct: endogenous in cells; host or cells: heparinised whole blood of a healthy human donor pretreated with aspirin, stimulated with LPS (own knowledge: COX-2 is induced in monocytes)
T2 sequence (P35354 18-604): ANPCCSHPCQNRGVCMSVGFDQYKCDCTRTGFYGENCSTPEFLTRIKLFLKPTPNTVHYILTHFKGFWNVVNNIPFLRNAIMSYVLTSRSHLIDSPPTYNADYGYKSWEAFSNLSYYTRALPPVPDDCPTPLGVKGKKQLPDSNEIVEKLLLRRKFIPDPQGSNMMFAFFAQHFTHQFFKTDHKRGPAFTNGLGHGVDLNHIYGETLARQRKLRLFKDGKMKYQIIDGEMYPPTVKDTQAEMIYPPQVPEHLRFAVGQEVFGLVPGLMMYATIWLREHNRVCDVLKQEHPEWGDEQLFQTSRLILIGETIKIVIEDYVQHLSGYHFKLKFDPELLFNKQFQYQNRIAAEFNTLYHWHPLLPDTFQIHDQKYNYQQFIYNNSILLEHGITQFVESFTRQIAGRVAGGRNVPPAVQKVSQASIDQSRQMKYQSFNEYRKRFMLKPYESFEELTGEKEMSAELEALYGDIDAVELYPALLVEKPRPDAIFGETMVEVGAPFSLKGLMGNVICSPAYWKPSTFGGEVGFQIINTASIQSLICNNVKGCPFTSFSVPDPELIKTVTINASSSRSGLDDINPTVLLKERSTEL

carrageenan footedema = test: Carrageenan Footedema Suppression Test; assay type: in vivo, SD rats; details: oral; paw volume three hours after carrageenan administration
Procedure: The carrageenin footedema suppression test was conducted according to the method of Winter et al. (J. Pharm. Exp. Ther., Vol.141, 369 (1963)). The test samples suspended in Tween 80 were administered orally to SD rats (6 rats per 1 group) in an amount of 1 ml per 100 g of the body weight, while only the solvent was administered in the same manner as above as a control. One hour after the administration, 1% carrageenan physiological saline was injected subcutaneously to the rats in the plantar area of the right hind paw. Three hours after the carrageenan administration, the paw volumes were measured and the edematization rate (%) was calculated with Formula 1 and then edematization suppression rate (%) was calculated with Formula 2.
Edematization rate (%)=((paw volume after carrageenan injection- paw volume before carrageenan injection)/(paw volume before carrageenan injection)×100 Formula: 1
Edematization suppression rate (%)=((edematization rate of control-
edematization rate of test samples)/edematization rate of […]

T1 sequence (P23219 24-599): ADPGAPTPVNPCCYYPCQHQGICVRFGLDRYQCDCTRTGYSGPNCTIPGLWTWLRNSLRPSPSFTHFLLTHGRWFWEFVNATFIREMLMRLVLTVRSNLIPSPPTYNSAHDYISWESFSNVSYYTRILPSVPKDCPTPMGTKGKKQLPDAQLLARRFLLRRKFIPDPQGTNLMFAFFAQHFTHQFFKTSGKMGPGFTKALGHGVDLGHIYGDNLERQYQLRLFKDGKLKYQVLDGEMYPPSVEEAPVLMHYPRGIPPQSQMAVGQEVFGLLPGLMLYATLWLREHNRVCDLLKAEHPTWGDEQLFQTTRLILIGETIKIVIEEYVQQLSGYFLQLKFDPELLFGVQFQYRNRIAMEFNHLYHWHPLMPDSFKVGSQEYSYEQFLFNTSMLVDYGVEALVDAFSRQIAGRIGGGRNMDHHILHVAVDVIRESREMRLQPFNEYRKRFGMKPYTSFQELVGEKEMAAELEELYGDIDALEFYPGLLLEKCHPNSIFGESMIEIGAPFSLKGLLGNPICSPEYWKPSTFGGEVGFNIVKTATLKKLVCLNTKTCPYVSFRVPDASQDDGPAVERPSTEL

## CS(=O)(=O)c1ccc(-c2[nH]ccc2-c2ccc(F)cc2)cc1 [Control compound (b), 4-(4-fluorophenyl)-5-(4-methylsulfonylphenyl)-1H-pyrrole, reference compound]
Human COX-1
  IC50: 373 µM
Human COX-2
  COX-1/COX-2 (value specified in the literature): 29.4
Carrageenan footedema
  Edematization Suppression rate: -1.8%
